Common to all, as to details: Shake Flask, 1 hour contact (T1h vs T0), incubation 32 °C 24 hours; test concentration not given
Test [1] has as its system Staphylococcus aureus (SA) CIP 4.83. As to the method:
(§1) The antibacterial efficacy was tested following the below Shake Flask protocol:
(§2) • Microbial strains: Staphylococcus aureus (SA) CIP 4.83, Escherichia Coli (EC) CIP 53.126, Pseudomonas Aeruginosa (PA) CIP 82.113 • Culture media: TSA medium—Neutralizing medium (Dey Engley Broth)—Buffered Peptoned water (BPW-F)—Shake flask bottles—Physiological water • Incubator Shake Flask Protocol: ASTM E2149 Shake Flask Method • Inoculum counting: • For each strain, prepare an inoculum at 0.5 Mc Farland (McF). Dilute 1 ml of the inoculum with 9 ml of physiological water. Select 1 ml of the resulting dilution and dilute again with 9 ml of physiological water. Execute 5 dilution steps accordingly so that a 10^−5 dilution is obtained. • Recover 100 microliter of the 10^−5 dilution and inoculate 2 petri dishes. • Add 20 ml of TSA medium. • Incubate at 32+/−0.5° C. during 24 hours • Negative control: • Put 5 ml of SA, EC or PA inoculums into a shake flask. Add 45 ml of pure BPW-F solution. • Dilute twice in neutralizing medium: Recover 1 ml of the pure solution and add 9 ml of the neutralizing medium (=10^−1 and 10^−2 dilution). • Wait 5 minutes and put 100 microliter of the pure solution and the 10^−2 dilution into 2 petri dishes, add 20 ml of TSA medium (T0). • Do the same operation after 1 hour (T1h). • Incubate at 32+/−0:5° C. during 24 hours • Sample testing: • Prepare a solution at a specified concentration (see data tables for actual concentrations as 100% active—final volume 50 ml). For example, for a 50% (V/V), dilute 25 ml of product with 20 ml of BPW-F and 5 ml of the inoculums (SA, EC or PA) at 0.5 McF. • Dilute twice in neutralizing medium: Recover 1 ml of the pure solution and add 9 ml of the neutralizing medium (=10^−1 and 10^−2 dilution). • Wait 5 minutes and put 100 microliter of the pure solution and the 10^−2 dilution into 2 petri dishes, add 20 ml of TSA medium (T0). • Do the same operation after 1 hour (T1h). • Incubate at 32+/−0.5° C. during 24 hours • Calculation of log reduction: • The log reduction is calculated as log (T0/T1h)

Test [2] deals with Pseudomonas Aeruginosa (PA) CIP 82.113. As to the method:
as §1, §2

Test [3] concerns Escherichia Coli (EC) CIP 53.126. As to the method:
as §1, §2

As to “asymmetrically branched C12-14 alkyl dimethyl amine oxide”, the “log reduction, log (T0/T1h), St. Aureus” value in test [1] was found to be 4.06. For the same substance, the “log reduction, log (T0/T1h), Ps Aeroginosa” value (shortened to “log reduction … Ps Aeroginosa”) in test [2] came out at 3.98.
As for “linear C12-14 alkyl dimethyl amine oxide [reference compound]”, in test [1], the “log reduction, log (T0/T1h), St. Aureus” value was 0.73. Besides, the “log reduction … Ps Aeroginosa” value in test [2] worked out at 2.10. The “log reduction, log (T0/T1h), E. coli” value in test [3] amounted to 0.41.
As for “symmetrically branched C12-14 alkyl dimethyl amine oxide”, the “log reduction … Ps Aeroginosa” value in test [2] came out at 3.29. In test [3], the “log reduction, log (T0/T1h), E. coli” value was determined as 2.6.
